Data taken from the NIST ThermoML archive (doi:10.1021/je4000372).
± gives the expanded uncertainty stated by the source.

How the values were obtained:
[1] = 101 kPa, Liquid; for viscosity: Capillary tube (Ostwald / Ubbelohde) method; for mass density: Pycnometric method
[2] = xn = mol fraction of the nth substance listed; settings: 101 kPa, Liquid; for viscosity: Capillary tube (Ostwald / Ubbelohde) method; for mass density: Pycnometric method

Compound	viscosity ([1]; 293.15 K)	mass density ([1]; 293.15 K)	viscosity ([1]; 303.15 K)	mass density ([1]; 303.15 K)	viscosity ([1]; 313.15 K)	mass density ([1]; 313.15 K)	viscosity ([1]; 323.15 K)	mass density ([1]; 323.15 K)	viscosity ([1]; 333.15 K)	mass density ([1]; 333.15 K)	other results
NCCO [2-aminoethan-1-ol]	24.14 ± 0.76 mPa·s	1016.1 ± 2.1 kg/m3	14.88 ± 0.48 mPa·s	1008.4 ± 2.1 kg/m3	9.93 ± 0.32 mPa·s	1000.1 ± 2.1 kg/m3	6.89 ± 0.22 mPa·s	991.9 ± 2.1 kg/m3	4.97 ± 0.16 mPa·s	983.6 ± 2.1 kg/m3	
NCCO [2-aminoethan-1-ol] + CCCCOCCOCCO											viscosity ([2]; 293.15 K, x2 = 0): 24.14 ± 0.76 mPa·s; mass density ([2]; 293.15 K, x2 = 0): 1016.1 ± 2.1 kg/m3; viscosity ([2]; 303.15 K, x2 = 0): 14.88 ± 0.48 mPa·s; mass density ([2]; 303.15 K, x2 = 0): 1008.4 ± 2.1 kg/m3; viscosity ([2]; 313.15 K, x2 = 0): 9.93 ± 0.32 mPa·s; mass density ([2]; 313.15 K, x2 = 0): 1000.1 ± 2.1 kg/m3; viscosity ([2]; 323.15 K, x2 = 0): 6.89 ± 0.22 mPa·s; mass density ([2]; 323.15 K, x2 = 0): 991.9 ± 2.1 kg/m3; viscosity ([2]; 333.15 K, x2 = 0): 4.97 ± 0.16 mPa·s; mass density ([2]; 333.15 K, x2 = 0): 983.6 ± 2.1 kg/m3
CCCCOCCOCCO [3,6-dioxa-1-decanol]	5.84 ± 0.18 mPa·s	952.9 ± 2.1 kg/m3	4.23 ± 0.13 mPa·s	943.5 ± 2 kg/m3	3.22 ± 0.1 mPa·s	935.7 ± 2 kg/m3	2.51 ± 0.08 mPa·s	926.6 ± 2 kg/m3	2 ± 0.06 mPa·s	918.5 ± 2 kg/m3	
CCCCOCCOCCO [3,6-dioxa-1-decanol] + OCCN(CCO)CCO											viscosity ([2]; 293.15 K, x1 = 1): 5.84 ± 0.18 mPa·s; mass density ([2]; 293.15 K, x1 = 1): 952.9 ± 2.1 kg/m3; viscosity ([2]; 303.15 K, x1 = 1): 4.23 ± 0.13 mPa·s; mass density ([2]; 303.15 K, x1 = 1): 943.5 ± 2 kg/m3; viscosity ([2]; 313.15 K, x1 = 1): 3.22 ± 0.1 mPa·s; mass density ([2]; 313.15 K, x1 = 1): 935.7 ± 2 kg/m3; viscosity ([2]; 323.15 K, x1 = 1): 2.51 ± 0.08 mPa·s; mass density ([2]; 323.15 K, x1 = 1): 926.6 ± 2 kg/m3; viscosity ([2]; 333.15 K, x1 = 1): 2 ± 0.06 mPa·s; mass density ([2]; 333.15 K, x1 = 1): 918.5 ± 2 kg/m3
OCCNCCO [diethanolamine]	890.9 ± 49 mPa·s	1096.1 ± 2.3 kg/m3	382.2 ± 18 mPa·s	1089.8 ± 2.2 kg/m3	187.6 ± 7.4 mPa·s	1083.7 ± 2.2 kg/m3	99.11 ± 3.4 mPa·s	1077.4 ± 2.2 kg/m3	58.12 ± 1.9 mPa·s	1070.7 ± 2.2 kg/m3	
OCCNCCO [diethanolamine] + CCCCOCCOCCO											viscosity ([2]; 293.15 K, x2 = 0): 890.9 ± 49 mPa·s; mass density ([2]; 293.15 K, x2 = 0): 1096.1 ± 2.3 kg/m3; viscosity ([2]; 303.15 K, x2 = 0): 382.2 ± 18 mPa·s; mass density ([2]; 303.15 K, x2 = 0): 1089.8 ± 2.2 kg/m3; viscosity ([2]; 313.15 K, x2 = 0): 187.6 ± 7.4 mPa·s; mass density ([2]; 313.15 K, x2 = 0): 1083.7 ± 2.2 kg/m3; viscosity ([2]; 323.15 K, x2 = 0): 99.11 ± 3.4 mPa·s; mass density ([2]; 323.15 K, x2 = 0): 1077.4 ± 2.2 kg/m3; viscosity ([2]; 333.15 K, x2 = 0): 58.12 ± 1.9 mPa·s; mass density ([2]; 333.15 K, x2 = 0): 1070.7 ± 2.2 kg/m3
OCCN(CCO)CCO [triethanolamine]	917.6 ± 51 mPa·s	1124.3 ± 2.3 kg/m3	404.7 ± 19 mPa·s	1118.5 ± 2.3 kg/m3	203.9 ± 8.2 mPa·s	1112.8 ± 2.3 kg/m3	108.3 ± 3.8 mPa·s	1107.1 ± 2.3 kg/m3	64.2 ± 2.2 mPa·s	1101.5 ± 2.3 kg/m3	
